According to US20240024488A1, “COMPOUNDS AND USES THEREOF” (Foghorn Therapeutics Inc., priority 2020, published 2024):

Columns and labels:
[1] = target: T1, HiBit-BRG1 fusion protein (Homo sapiens, UniProt P51532); assay: HiBiT-BRG1 cell-based degradation assay (Nano-Glo HiBiT Lytic Detection, 24 h); conditions: HeLa cell line expressing HiBit-BRG1 and LgBit; for Dmax: read-out: BRG1 HiBit Degradation Maximum (%)
T1 construct: expressed in transfected cells
Method in brief: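 Luminescence from Nano-Glo HiBiT lytic detection, read after 24 h compound exposure, scored degradation in a stable HeLa HiBiT-BRG1/LgBit line seeded at 5000 cells/well. DMSO wells defined 0% and 2 μM known BRM/BRG1 degrader wells defined full degradation.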

HiBit-BRM fusion protein = target: T2, HiBit-BRM fusion protein (Homo sapiens, UniProt P51531); assay: HiBiT-BRM cell-based degradation assay (Nano-Glo HiBiT Lytic Detection, 24 h); conditions: HeLa cell line expressing HiBiT-BRM; for DC50: read-out: BRM HiBit Degradation IC50
T2 construct: expressed in transfected cells
T2 sequence (P51531 whole entry, the tested form may be a part): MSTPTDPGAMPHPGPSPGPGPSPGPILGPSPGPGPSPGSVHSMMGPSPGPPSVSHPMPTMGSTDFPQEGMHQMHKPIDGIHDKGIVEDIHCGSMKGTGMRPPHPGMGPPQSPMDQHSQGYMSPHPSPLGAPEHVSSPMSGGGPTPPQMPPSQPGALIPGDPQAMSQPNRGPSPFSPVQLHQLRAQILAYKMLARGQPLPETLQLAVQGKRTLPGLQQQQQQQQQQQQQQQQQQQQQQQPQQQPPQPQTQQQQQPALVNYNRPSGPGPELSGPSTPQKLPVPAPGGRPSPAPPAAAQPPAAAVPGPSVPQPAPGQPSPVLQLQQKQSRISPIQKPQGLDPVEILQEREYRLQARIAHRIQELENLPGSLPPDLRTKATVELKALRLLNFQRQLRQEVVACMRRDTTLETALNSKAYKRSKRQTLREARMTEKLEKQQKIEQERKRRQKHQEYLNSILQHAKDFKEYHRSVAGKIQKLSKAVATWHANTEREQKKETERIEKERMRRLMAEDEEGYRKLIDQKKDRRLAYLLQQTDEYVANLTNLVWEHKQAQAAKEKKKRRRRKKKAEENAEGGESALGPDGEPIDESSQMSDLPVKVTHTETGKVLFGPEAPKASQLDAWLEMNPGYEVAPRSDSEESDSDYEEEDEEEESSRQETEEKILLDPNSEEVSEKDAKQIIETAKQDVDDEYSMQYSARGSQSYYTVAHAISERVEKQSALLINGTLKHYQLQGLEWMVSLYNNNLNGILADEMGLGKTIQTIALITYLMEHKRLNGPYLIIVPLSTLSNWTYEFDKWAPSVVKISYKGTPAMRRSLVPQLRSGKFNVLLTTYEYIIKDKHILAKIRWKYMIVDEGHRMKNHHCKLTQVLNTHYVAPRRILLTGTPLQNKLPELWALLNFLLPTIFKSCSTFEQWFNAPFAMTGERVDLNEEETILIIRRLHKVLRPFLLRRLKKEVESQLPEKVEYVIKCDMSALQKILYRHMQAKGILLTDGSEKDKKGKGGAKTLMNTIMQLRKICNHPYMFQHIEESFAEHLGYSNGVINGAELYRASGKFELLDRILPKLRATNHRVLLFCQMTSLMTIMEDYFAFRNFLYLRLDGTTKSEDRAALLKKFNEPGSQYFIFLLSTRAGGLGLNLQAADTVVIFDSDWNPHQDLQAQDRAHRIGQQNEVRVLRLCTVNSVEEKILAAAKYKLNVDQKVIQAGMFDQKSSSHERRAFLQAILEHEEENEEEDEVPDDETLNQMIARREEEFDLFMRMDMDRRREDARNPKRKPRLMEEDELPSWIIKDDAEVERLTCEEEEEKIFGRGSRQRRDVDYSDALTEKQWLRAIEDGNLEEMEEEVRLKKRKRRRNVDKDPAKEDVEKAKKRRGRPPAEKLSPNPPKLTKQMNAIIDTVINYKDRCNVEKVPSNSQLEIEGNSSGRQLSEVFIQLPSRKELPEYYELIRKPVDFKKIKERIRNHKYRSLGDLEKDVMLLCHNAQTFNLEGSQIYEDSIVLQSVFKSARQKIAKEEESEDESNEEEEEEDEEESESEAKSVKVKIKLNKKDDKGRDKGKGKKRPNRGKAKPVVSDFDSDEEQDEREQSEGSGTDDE
Method in brief: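 Percent BRM loss was derived from HiBiT luminescence relative to DMSO-treated cells and cells given 2 μM of a known BRM/BRG1 degrader. Treatment lasted 24 h in HiBiT-BRM HeLa cells, with a top final concentration of 30 μM.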

T1 sequence (P51532 whole entry, the tested form may be a part): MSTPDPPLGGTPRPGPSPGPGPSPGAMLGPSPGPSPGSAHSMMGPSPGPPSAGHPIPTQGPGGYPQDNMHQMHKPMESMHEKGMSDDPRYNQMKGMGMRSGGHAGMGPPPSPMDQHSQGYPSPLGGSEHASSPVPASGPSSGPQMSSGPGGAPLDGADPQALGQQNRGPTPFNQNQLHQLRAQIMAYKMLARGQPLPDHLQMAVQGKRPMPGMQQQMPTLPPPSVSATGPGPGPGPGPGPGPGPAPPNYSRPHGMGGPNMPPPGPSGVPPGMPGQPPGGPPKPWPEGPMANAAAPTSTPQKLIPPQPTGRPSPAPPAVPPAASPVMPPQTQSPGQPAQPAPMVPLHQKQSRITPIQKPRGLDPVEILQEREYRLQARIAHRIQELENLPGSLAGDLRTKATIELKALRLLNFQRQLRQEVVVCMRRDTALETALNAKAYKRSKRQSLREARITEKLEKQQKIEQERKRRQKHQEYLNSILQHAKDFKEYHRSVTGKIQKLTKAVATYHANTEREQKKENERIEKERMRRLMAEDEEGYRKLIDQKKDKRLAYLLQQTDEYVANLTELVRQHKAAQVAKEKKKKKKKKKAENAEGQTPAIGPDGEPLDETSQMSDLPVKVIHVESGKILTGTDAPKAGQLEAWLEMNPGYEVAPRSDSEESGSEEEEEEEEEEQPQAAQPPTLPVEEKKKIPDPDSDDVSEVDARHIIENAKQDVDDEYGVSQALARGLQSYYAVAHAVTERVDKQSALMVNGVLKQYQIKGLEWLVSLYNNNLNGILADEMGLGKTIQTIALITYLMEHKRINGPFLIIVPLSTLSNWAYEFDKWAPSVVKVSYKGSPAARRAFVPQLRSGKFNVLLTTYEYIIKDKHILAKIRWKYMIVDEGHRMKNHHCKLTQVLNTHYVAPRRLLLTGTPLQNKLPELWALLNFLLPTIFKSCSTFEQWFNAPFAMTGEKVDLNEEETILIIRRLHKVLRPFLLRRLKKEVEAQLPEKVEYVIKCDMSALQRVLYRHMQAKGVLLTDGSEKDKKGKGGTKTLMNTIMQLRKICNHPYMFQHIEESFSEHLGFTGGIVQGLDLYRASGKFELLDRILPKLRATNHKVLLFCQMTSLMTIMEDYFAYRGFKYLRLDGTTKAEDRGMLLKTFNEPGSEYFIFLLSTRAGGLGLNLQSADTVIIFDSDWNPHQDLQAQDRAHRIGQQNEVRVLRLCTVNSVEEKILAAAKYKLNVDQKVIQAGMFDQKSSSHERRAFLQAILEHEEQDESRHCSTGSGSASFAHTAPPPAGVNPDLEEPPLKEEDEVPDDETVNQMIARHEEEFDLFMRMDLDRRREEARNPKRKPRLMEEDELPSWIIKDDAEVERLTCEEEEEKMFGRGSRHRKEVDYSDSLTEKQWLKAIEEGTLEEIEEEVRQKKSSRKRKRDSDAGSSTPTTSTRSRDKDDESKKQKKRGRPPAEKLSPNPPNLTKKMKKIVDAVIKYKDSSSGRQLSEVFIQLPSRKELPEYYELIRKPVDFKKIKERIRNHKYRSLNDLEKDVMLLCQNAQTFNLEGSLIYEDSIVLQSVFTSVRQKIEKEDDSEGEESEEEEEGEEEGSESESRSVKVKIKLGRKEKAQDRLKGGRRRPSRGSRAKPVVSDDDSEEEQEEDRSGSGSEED

Compound | Dmax [1] [%] | DC50 (HiBit-BRM fusion protein) [nM] | DC50 ([1]; read-out: BRMG1 HiBit Degradation IC50) [nM] | BRM HiBit Degradation Maximum (%) (HiBit-BRM fusion protein)
Cc1ncsc1-c1ccc([C@H](C)NC(=O)[C@@H]2C[C@@H](O)CN2C(=O)[C@@H](c2cc(OCCN[C@H]3CCc4[nH]c5nnc(-c6ccccc6O)cc5c4C3)no2)C(C)C)cc1 (single isomer, unassigned) [Compound 200] | < 50 | > 10 |  | A (“A” indicates maximum degradation ≥ 75%)
Cc1ncsc1-c1ccc(CNC(=O)[C@@H]2C[C@@H](O)CN2C(=O)[C@H](c2cc(OCCN3CC(c4cc5cc(-c6ccccc6O)nnc5[nH]4)C3)no2)C(C)C)cc1 (single isomer, unassigned) [Compound 207] | < 50 |  |  | C (“C” indicates maximum degradation < 50%)
Cc1ncsc1-c1ccc(CNC(=O)[C@@H]2C[C@@H](O)CN2C(=O)[C@@H](c2cc(OCCN3CC(c4cc5cc(-c6ccccc6O)nnc5[nH]4)C3)no2)C(C)C)cc1 (single isomer, unassigned) [Compound 209] | < 50 | > 10 |  | A (“A” indicates maximum degradation ≥ 75%)
Cc1ncsc1-c1ccc([C@H](C)NC(=O)[C@@H]2C[C@@H](O)CN2C(=O)[C@H](c2cc(OCCN3CC(c4cc5cc(-c6ccccc6O)nnc5[nH]4)C3)no2)C(C)C)cn1 (single isomer, unassigned) [Compound 218] | < 50 |  |  | C (“C” indicates maximum degradation < 50%)
Cc1ncsc1-c1ccc([C@H](C)NC(=O)[C@@H]2C[C@@H](O)CN2C(=O)[C@@H](c2cc(OCCN3CCC[C@H]3c3c[nH]c4nnc(-c5ccccc5O)cc34)no2)C(C)C)cc1 (single isomer, unassigned) [Compound 227] | < 50 |  |  | C (“C” indicates maximum degradation < 50%)
Cc1ncsc1-c1ccc([C@H](C)NC(=O)[C@@H]2C[C@@H](O)CN2C(=O)[C@@H](c2cc(OCCN3CCC[C@@H]3c3c[nH]c4nnc(-c5ccccc5O)cc34)no2)C(C)C)cc1 (single isomer, unassigned) [Compound 228] | < 50 |  |  | C (“C” indicates maximum degradation < 50%)
Cc1ncsc1-c1ccc([C@H](C)NC(=O)[C@@H]2C[C@@H](O)CN2C(=O)[C@@H](c2cc(OCCN3CC[C@@H](c4c(C)[nH]c5nnc(-c6ccccc6O)cc45)C3)no2)C(C)C)cc1 (single isomer, unassigned) [Compound 232] | < 50 | > 1000 |  | C (“C” indicates maximum degradation < 50%)
Cc1ncsc1-c1ccc([C@H](C)NC(=O)[C@@H]2C[C@@H](O)CN2C(=O)[C@@H](c2cc(OCCN3CC[C@H](c4c(C)[nH]c5nnc(-c6ccccc6O)cc45)C3)no2)C(C)C)cc1 (single isomer, unassigned) [Compound 241] | < 50 | > 10 |  | B (“B” indicates maximum degradation ≥ 50%)
Cc1ncsc1-c1ccc([C@H](C)NC(=O)[C@@H]2C[C@@H](O)CN2C(=O)[C@@H](NC(=O)CCCCCCCCC(=O)N2CC(c3cc4cc(-c5ccccc5O)nnc4[nH]3)C2)C(C)(C)C)cc1 [Compound 1, (2S,4R)-4-hydroxy-1-((S)-2-(10-(3-(3-(2-hydroxyphenyl)-7H-pyrrolo[2,3-c]pyridazin-6-yl)azetidin-1-yl)-10-oxodecanamido)-3,3-dimethylbutanoyl)-N—((S)-1-(4-(4-methylthiazol-5-yl)phenyl)ethyl)pyrrolidine-2-carboxamide] | < 50 | > 100 |  | A (“A” indicates maximum degradation ≥ 75%)
Cc1ncsc1-c1ccc(CNC(=O)[C@@H]2C[C@@H](O)CN2C(=O)[C@@H](NC(=O)CCCCCCCCC(=O)N2CC(c3cc4cc(-c5ccccc5O)nnc4[nH]3)C2)C(C)(C)C)cc1 [Compound 2, (2S,4R)-4-hydroxy-1-((S)-2-(10-(3-(3-(2-hydroxyphenyl)-7H-pyrrolo[2,3-c]pyridazin-6-yl)azetidin-1-yl)-10-oxodecanamido)-3,3-dimethylbutanoyl)-N-(4-(4-methylthiazol-5-yl)benzyl)pyrrolidine-2-carboxamide] | < 50 | > 100 |  | A (“A” indicates maximum degradation ≥ 75%)
Cc1ncsc1-c1ccc(CNC(=O)[C@@H]2C[C@@H](O)CN2C(=O)[C@@H](NC(=O)CCCCCCC(=O)N2CC(c3cc4cc(-c5ccccc5O)nnc4[nH]3)C2)C(C)(C)C)cc1 [Compound 3, (2S,4R)-4-hydroxy-1-((S)-2-(8-(3-(3-(2-hydroxyphenyl)-7H-pyrrolo[2,3-c]pyridazin-6-yl)azetidin-1-yl)-8-oxooctanamido)-3,3-dimethylbutanoyl)-N-(4-(4-methylthiazol-5-yl)benzyl)pyrrolidine-2-carboxamide] | < 50 | > 1000 |  | B (“B” indicates maximum degradation ≥ 50%)
Cc1ncsc1-c1ccc(CNC(=O)[C@@H]2C[C@@H](O)CN2C(=O)[C@@H](NC(=O)CCCCCCCCCCC(=O)N2CC(c3cc4cc(-c5ccccc5O)nnc4[nH]3)C2)C(C)(C)C)cc1 [Compound 4, (2S,4R)-4-hydroxy-1-((S)-2-(12-(3-(3-(2-hydroxyphenyl)-7H-pyrrolo[2,3-c]pyridazin-6-yl)azetidin-1-yl)-12-oxododecanamido)-3,3-dimethylbutanoyl)-N-(4-(4-methylthiazol-5-yl)benzyl)pyrrolidine-2-carboxamide] | < 50 | > 100 |  | A (“A” indicates maximum degradation ≥ 75%)
Cc1ncsc1-c1ccc(CNC(=O)[C@@H]2C[C@@H](O)CN2C(=O)[C@@H](NC(=O)CCCCCCCCCC(=O)N2CC(c3cc4cc(-c5ccccc5O)nnc4[nH]3)C2)C(C)(C)C)cc1 [Compound 5, (2S,4R)-4-hydroxy-1-((S)-2-(11-(3-(3-(2-hydroxyphenyl)-7H-pyrrolo[2,3-c]pyridazin-6-yl)azetidin-1-yl)-11-oxoundecanamido)-3,3-dimethylbutanoyl)-N-(4-(4-methylthiazol-5-yl)benzyl)pyrrolidine-2-carboxamide] | < 50 | > 100 |  | A (“A” indicates maximum degradation ≥ 75%)

Second part, led by results:

Dmax [1] [%] | DC50 (HiBit-BRM fusion protein) [nM] | DC50 ([1]; read-out: BRMG1 HiBit Degradation IC50) [nM] | Compound | BRM HiBit Degradation Maximum (%) (HiBit-BRM fusion protein)
< 50 |  |  | Cc1ncsc1-c1ccc([C@H](C)NC(=O)[C@@H]2C[C@@H](O)CN2C(=O)[C@H](c2cc(C3CCN(C(=O)c4cc5cc(-c6ccccc6O)nnc5[nH]4)CC3)no2)C(C)C)cc1 (single isomer, unassigned) [Compound 201] | C (“C” indicates maximum degradation < 50%)
< 50 |  |  | Cc1ncsc1-c1ccc([C@H](C)NC(=O)[C@@H]2C[C@@H](O)CN2C(=O)[C@H](c2cc(CCCN3CC(c4cc5cc(-c6ccccc6O)nnc5[nH]4)C3)no2)C(C)C)cc1 (single isomer, unassigned) [Compound 202] | C (“C” indicates maximum degradation < 50%)
< 50 | > 100 |  | Cc1ncsc1-c1ccc([C@H](C)NC(=O)[C@@H]2C[C@@H](O)CN2C(=O)[C@@H](c2cc(C3CCN(C(=O)c4cc5cc(-c6ccccc6O)nnc5[nH]4)CC3)no2)C(C)C)cc1 (single isomer, unassigned) [Compound 203] | A (“A” indicates maximum degradation ≥ 75%)
< 50 | > 100 |  | Cc1ncsc1-c1ccc([C@H](C)NC(=O)[C@@H]2C[C@@H](O)CN2C(=O)[C@@H](c2cc(CCCN3CC(c4cc5cc(-c6ccccc6O)nnc5[nH]4)C3)no2)C(C)C)cc1 (single isomer, unassigned) [Compound 204] | A (“A” indicates maximum degradation ≥ 75%)
< 50 | > 100 |  | Cc1ncsc1-c1ccc([C@H](C)NC(=O)[C@@H]2C[C@@H](O)CN2C(=O)[C@@H](c2cc(OCCN3CC(c4cc5cc(-c6ccccc6O)nnc5[nH]4)C3)no2)C(C)C)cn1 (single isomer, unassigned) [Compound 219] | A (“A” indicates maximum degradation ≥ 75%)
> 75 | > 10 | > 10 | Cc1ncsc1-c1ccc([C@H](C)NC(=O)[C@@H]2C[C@@H](O)CN2C(=O)[C@@H](c2cc(N3CCN(CC45CC(c6cc7cc(-c8ccccc8O)nnc7[nH]6)(C4)C5)CC3)no2)C(C)C)cc1 (single isomer, unassigned) [Compound 233] | A (“A” indicates maximum degradation ≥ 75%)
< 50 | > 100 |  | Cc1ncsc1-c1ccc([C@H](C)NC(=O)[C@@H]2C[C@@H](O)CN2C(=O)[C@@H](c2cc(N3CCN(C(=O)C(=O)N4CC(c5cc6cc(-c7ccccc7O)nnc6[nH]5)C4)CC3)no2)C(C)C)cc1 (single isomer, unassigned) [Compound 234] | A (“A” indicates maximum degradation ≥ 75%)
< 50 |  |  | Cc1ncsc1-c1ccc([C@H](C)NC(=O)[C@@H]2C[C@@H](O)CN2C(=O)[C@@H](c2cc(OCCCN3CC(c4cc5cc(-c6ccccc6O)nnc5[nH]4)C3)no2)C(C)C)cc1 (single isomer, unassigned) [Compound 237] | C (“C” indicates maximum degradation < 50%)
